What was measured:
Assay type in all cases: physicochemical
[1] = Hygroscopicity (weight gain at relative humidity); details: for Hygroscopicity (by weight): at 90% relative humidity; for Hygroscopicity (general statement): description, no conditions stated
[2] = Chemical stability (general statement); details: description, no conditions stated
[3] = Hygroscopicity in relative humidity chambers; details: after 16 hours
Procedure: The material was evaluated for hygroscopicity in relative humidity chambers.

SMILES | Hygroscopicity (by weight) [1] [%] | Chemical stability [2] | Hygroscopicity (general statement) [1] | further results
CCS(=O)(=O)O.CCS(=O)(=O)O.COCC(=O)NC/C=C/c1ccc2ncnc(Nc3ccc(Oc4ccc(C)nc4)c(C)c3)c2c1 [diesylate complex, E-2-Methoxy-N-(3-{4-[3-methyl-4-(6-methyl-pyridin-3-yloxy)-phenylamino]-quinazolin-6-yl}-allyl)-acetamide diesylate] | 45 |  |  | 
COCC(=O)NC/C=C/c1ccc2ncnc(Nc3ccc(Oc4ccc(C)nc4)c(C)c3)c2c1.O=C(O)/C=C\C(=O)O.O=C(O)/C=C\C(=O)O [dimaleate, E-2-Methoxy-N-(3-{4-[3-methyl-4-(6-methyl-pyridin-3-yloxy)-phenylamino]-quinazolin-6-yl}-allyl)-acetamide Dimaleate] | 0.6 | chemically stable | non-hygroscopic | 
COCC(=O)NC/C=C/c1ccc2ncnc(Nc3ccc(Oc4ccc(C)nc4)c(C)c3)c2c1.O=[N+]([O-])O.O=[N+]([O-])O [dinitrate, E-2-Methoxy-N-(3-{4-[3-methyl-4-(6-methyl-pyridin-3-yloxy)-phenylamino]-quinazolin-6-yl}-allyl)-acetamide dinitrate] | ~7 |  |  | 
COCC(=O)NC/C=C/c1ccc2ncnc(Nc3ccc(Oc4ccc(C)nc4)c(C)c3)c2c1.O=S(=O)(O)c1ccccc1 [monobesylate, E-2-Methoxy-N-(3-{4-[3-methyl-4-(6-methyl-pyridin-3-yloxy)-phenylamino]-quinazolin-6-yl}-allyl)-acetamide monobesylate] |  |  |  | Water sorption ([3]; 75% RH chamber): no significant water sorption; Weight increase ([3]; 94% RH chamber): 6.7%; Deliquescence ([3]; 100% relative humidity chamber): deliquescence was observed
COCC(=O)NC/C=C/c1ccc2ncnc(Nc3ccc(Oc4ccc(C)nc4)c(C)c3)c2c1.Cl [monohydrochloride, E-2-Methoxy-N-(3{4-[3-methyl-4-(6-methyl-pyridin-3-yloxy)-phenylamino]-quinazolin-6-yl}-allyl)-acetamide Monohydrochloride] |  | chemically stable | non-hygroscopic | 
COCC(=O)NC/C=C/c1ccc2ncnc(Nc3ccc(Oc4ccc(C)nc4)c(C)c3)c2c1.O=P(O)(O)O [monophosphate, E-2-Methoxy-N-(3{4-[3-methyl-4-(6-methyl-pyridin-3-yloxy)-phenylamino]-quinazolin-6-yl}-allyl)-acetamide Monophosphate] |  | chemically stable | non-hygroscopic | 
CC1(C)C2CCC1(CS(=O)(=O)O)C(=O)C2.COCC(=O)NC/C=C/c1ccc2ncnc(Nc3ccc(Oc4ccc(C)nc4)c(C)c3)c2c1 [racemic camsylate, racemic E-2-Methoxy-N-(3-{4-[3-methyl-4-(6-methyl-pyridin-3-yloxy)-phenylamino]-quinazolin-6-yl}-allyl)-acetamide camsylate] |  |  |  | Hygroscopicity (in words) ([1]; camsylate samples, conditions not stated): hygroscopic to the point of deliquescence

— US20050075354A1, “Complexes of E-2-Methoxy-N(3-{4-[3-methyl-4-(6-methyl-pyridin-3-yloxy)-phenylamino]-quinzazolin-6-YL}-allyl)-acetamide, their method of production, and use” (Pfizer Inc, priority 2002, published 2005)
